Read-outs that look alike come from different tables or passages of the source.
How the values were obtained:
Balb/c 3T3 cells = assay: NRU assay in Balb/c 3T3; type: cell-based, mouse; details: for EC50: Mus musculus, read-out: EC50 (effective concentration)
Procedure: (§1) The HepG2 cell line was purchased from the American Type Culture Collection (ATCC® HB-8065™). The cells were cultured in Minimum Essential Medium Eagle (MEME) (Sigma–Aldrich Co. (St. Louis, MO, USA)). Normal murine embryonic fibroblasts, Balb/c 3T3 clone A31 cell line (gift from Department of Swine Diseases of the National Veterinary Research Institute in Pulawy) was cultured in Dulbecco’s Modified Eagle’s Medium (DMEM) (Invitrogen Corporations (Paisley, UK)). The media were supplemented with 10% BCS (Balb/c 3T3), 10% FBS (HepG2), 1% L-glutamine, and 1% antibiotic solution. The cells were maintained in 75 cm^2 cell culture flasks in humidified incubator at 37 °C, in an atmosphere of 5% CO2. The medium was refreshed every two or three days and the cells were trypsinized by 0.25% trypsin–0.02% EDTA after reaching 70–80% confluence. The initial cell viability was determined with the trypan blue exclusion test. Single cell suspensions were prepared and adjusted to a density of 2 × 10^5 cell/mL (HepG2) and 1 × 10^5 cell/mL (Balb/c 3T3). The cell suspension was transferred to 96-well plates (100 µL/well) and incubated for 24 h before exposure to the studied drugs.
The concentration ranges of the drugs were chosen according to their solubility and their plasma level. Each drug was dissolved in DMSO. The final concentration of DMSO was 0.1% or 0.2% in the medium for both samples and corresponding controls. […] All drug solutions in medium were freshly prepared and protected from light. SAL was tested in seven concentrations from 0.39 to 25 µg/mL. […] The cytotoxicity was assessed after 24 and 48 h of exposure of cell lines or after 12 and 24 h exposure of PHH. […]
The assay, based on staining of living cells by neutral red (NR), was performed according to the protocol described by Borenfreund and Puerner. […] After 10 min of shaking, the absorbance of the dissolved NR was measured at 540 nm using a blank as a reference. Cytotoxicity was expressed as a percentage of the negative control (0.1% or 0.2% DMSO).

rabbits = details: cited from earlier work
HepG2 cells = assay: Biotransformation of SAL and metabolites in HepG2 (LC-MS/MS); type: in vitro ADME, human; details: HepG2, only after induction with prednisolone, 24 h (Figure 2C)
Procedure: as §1, with “The medium was refreshed every two or three days and the cells were trypsinized by 0.25% trypsin–0.02% EDTA after reaching 70–80% confluence.” left out, “Single cell suspensions were prepared and adjusted to a density of 2 × 10^5 cell/mL (HepG2) and 1 × 10^5 cell/mL (Balb/c 3T3). The cell suspension was transferred to 96-well plates (100 µL/well) and incubated for 24 h before exposure to the studied drugs.” left out
The medium samples from microplate wells were collected for identifying SAL metabolites and normalized to a cell number. An aliquot of 200 µL of each sample was measured to Eppendorf tube. […] The dry residue was reconstituted in 50% acetonitrile and analyzed with LC-MS/MS. […]
SAL (m/z 773.4 to m/z 431.3) was monitored in multiple reaction monitoring (MRM) modes. […]
The signals for further analysis were selected with the LightSight 2.3 software. […] These MRM transitions (with 20 chromatographic peaks) were then quantified with Multiquant 2.1. software. Quantitative analysis was performed for SAL. […]

hepatoma tumor = details: mice, doses of 4 and 8 mg/kg b.w.; cited from earlier work

In the case of `CC[C@@H](C(=O)[C@@H](C)[C@@H](O)[C@H](C)[C@@H]1O[C@@H]([C@@H](CC)C(=O)O)CC[C@@H]1C)[C@H]1O[C@]2(C=C[C@@H](O)[C@]3(CC[C@@](C)([C@H]4CC[C@](O)(CC)[C@H](C)O4)O3)O2)[C@H](C)C[C@@H]1C` [SAL, salinomycin], the “lowest concentration with significant effect on lysosomal activity” value (Balb/c 3T3 cells; Balb/c 3T3, 24 h, SAL alone or in both drug combinations (Figure S3)) is reported as 0.39 µg/mL, the EC50 (Balb/c 3T3 cells; BALB/c3T3, 24 h) is reported as 0.6 ± 0.2 µg/mL and the EC50 (Balb/c 3T3 cells; BALB/c3T3, 48 h) is reported as < 0.39 µg/mL. The LD50 (rabbits) was 21 mg/kg b.w, the “percentage of SAL metabolised” value (HepG2 cells) was “ca. 20%” and the “effect on hepatoma tumor” value (hepatoma tumor) was “significantly reducing the hepatoma tumor”.
